Data set [1] concerns Plasmodium berghei ANKA strain. In words: four-day standard suppressive test in infected mice. The class given is in vivo, Plasmodium berghei (Swiss albino mice). To be noted: for inhibition in vivo at 48.46 µmol/kg: Plasmodium berghei, 96 h, read-out: % Suppression; for % Parasitemia: smear on 5th day, mean ± SD. From the text:
In the present study, the in vivo antimalarial activities of the synthesized compounds were investigated using a mouse model which is ideal to elucidate the prodrug effects of the target compounds triggered by metabolic activation and eradication of infection due to the potential involvement of the immune system. To achieve a steady state infection against the experimental animals, Plasmodium berghei ANKA strain served as a parasite in the experiment and the effects of the target compounds was assessed by the standard four-day suppressive test (often employed to evaluate early infections) in terms of percent inhibition of parasitemia which is recognized as most trustworthy parameter in vivo antimalarial studies. Herein, the standard antimalarial drug chloroquine phosphate (CQ) and equimolar amounts (48.46 µmol/Kg) of the target 3-aryl-2-styry substituted-4(3H)-quinazolinone derivatives were administered orally and the % suppression, parasitemia level, and the survival time of mice were compared against mice treated with a formulation containing a solution of 7% Tween 80, and 3% ethanol in distilled water (control group).
Swiss albino male mice of weight 20–32 g and age 6–8 weeks were used for the antimalarial activity and acute toxicity tests. Plasmodium berghei ANKA strain is used to infect the mice for a four-day suppressive test, were obtained from Biomedical Laboratory, Department of Biology, Faculty of Science, AAU. Leishmania donovani isolate used in this study was obtained from the Leishmania Diagnosis and Research Laboratory (LDRL) culture bank, School of Medicine, AAU.
The antimalarial activities of the target compounds were assessed by the four-day standard suppressive test against mice infected with Plasmodium berghei. The mice were acclimatized to the experimental conditions in the animal house of Biomedical Laboratory, Addis Ababa University, Faculty of Science, Department of Biology, for seven days prior to the in vivo antimalarial activity testing. In due course, the mice were subjected to live in standard cages with a pelleted diet and water. To trigger a steadily rising infection in mice, blood infected with Plasmodium berghei ANKA strain (approximately 20–30% level of parasitemia) was collected from a donor mice using a syringe supplemented with 0.5% trisodium citrate and diluted in physiological saline to […]. Then, 0.2 mL of inoculum (supposed to have about 2 × 10^7 parasites) was injected into each mouse through the intraperitoneal route to achieve the desired level of infection within a short period of time. After 2 h of post-infection, the mice were carefully weighed using a digital balance and randomly assigned into nine groups where each group contain five mice. Of which, mice assigned as a negative control (Group 1) subjected to the formulation composed of 7% Tween 80, and 3% ethanol in distilled water (2 mL/100 g). In addition, mice which belong to the positive control (Group 2) was treated with 25 mg/kg/day (0.04846 mmol/kg/day) of chloroquine phosphate (CQ). The remaining groups (3–9) were subjected to oral treatment with equimolar amounts of the respective target compounds for four consecutive days. Finally, a blood smear was taken from the tail of the mice in the 5th day (24 h after the last dose), air-dried, fixed with absolute methanol and treated with 6% Giemsa stain. The mean parasitemia level of each group (control and treatment groups) was computed microscopically by counting the number of erythrocytes in four fields (⁓100 erythrocytes per field).

For data set [2], the system named is Leishmania donovani promastigotes (clinical isolate). Briefly: in vitro antipromastigote activity test (AlamarBlue/resazurin). It is filed as cell-based. Particulars: for IC50: Leishmania donovani. The protocol: The antipromastigote activities of the synthesized compounds and the existing antileishmanial drugs (miltefosine and amphotericin B deoxycholate) were assessed using the clinical isolate of the Leishmania donovani strain, which is known to cause VL worldwide. The soluble, stable and non-toxic fluorescence dye, AlamarBlue® (resazurin) (Trek Diagnostic Systems, Inc., Cleveland, OH, USA) was used to quantitatively determine the viability of Leishmania donovani and compute the IC50 value of target compounds and the reference drugs. Only metabolically active cells can reduce resazurin and convert into fluorescent resorufin. Thus, the fluorescent intensity of resorufin is directly correlated to the number of viable Leishmania donovani cells. […] Inspired by its promising antileishmanial outcome, (E)-2-(4-nitrostyryl)-3-phenylquinazolin-4(3H)-one (6) was subjected to molecular docking study by fitting it in Lm-PTR1 active site to gain an insight about the types of interactions between the simulated enzyme and itself.
RPMI-1640, 10% heat-inactivated fetal calf serum (HIFCS), 1% penicillin–streptomycin, and 1% L-glutamine were supplied to make a complete culture medium. The Leishmania donovani isolate was grown first on Novy-MacNeal-Nicolle (NNN) medium and then in tissue-culture flasks containing RPMI 1640 medium supplemented with 10% HIFCS and 1% 100 IU penicillin/mL-100 µg/mL streptomycin solution at 22 ℃ for promastigotes.
Stock solutions of 10 mg/mL of the synthesized compounds were prepared by dissolving each compound in DMSO for the antileishmanial activity testing. Stock solutions were diluted using complete RPMI to obtain aliquots of 10 µg/mL. Then, three-fold serial dilution with complete RPMI gave the final six working concentrations (10, 3.33, 1.11, 0.37, 0.12, and 0.04 µg/mL) of each of the synthesized compounds. Amphotericin B deoxycholate and miltefosine, which were used as positive controls for the comparison of the antileishmanial activities of the test compounds, were also made in three-fold serial dilutions. All the prepared drugs were stored at − 20 °C and retrieved only during use.
Prior to the in vitro antipromastigote testing, serial concentrations of the target compounds were prepared by implementing three-fold dilutions. Then, in a 96-well microtiter plate, 100 µl of each of the three-fold serial dilutions of the target compounds were added in triplicate wells. Then 100 µl of Leishmania donovani suspension containing 3.0 × 10^6 promastigotes per milliliter were added in duplicates. In this experiment, the media and DMSO served as a negative control. Moreover, the concentration of DMSO was maintained below 1% of the target compound preparation to avoid the potential growth inhibition and interference effect of DMSO in the entire antipromastigote assay. Properly labelled plates which belong to the negative-control group, positive-control groups (treated with miltefosine and amphotericin B deoxycholate) and target compounds were then kept in a humidified atmosphere at 22 ℃ under 5% CO2 […]. To determine the viability Leishmania donovani isolates after the respective treatment, 10 µL of fluorochrome AlamarBlue® solution prepared by dissolving 12.5 mg resazurin in 100 mL of distilled water was added to each well and incubated for 4 h. Then, the fluorescence intensity of each well was determined using Victor3 Multilabel Counter (PerkinElmer, Waltham, MA, USA), at 530 nm and 590 nm, excitation and emission wavelengths, respectively. The IC50 values of the negative-control, positive-control groups and test-groups were determined from sigmoidal dose-response curves using GraphPad Prism 5.0 software (GraphPad Software, Inc., San Diego, CA, USA).
A general note: Resazurin is reduced to fluorescent resorufin, in cell work by metabolically active cells.

For the next data set, the system named is male Swiss albino mice. Briefly: in vivo oral acute toxicity test. Particulars: for mortality in mice: oral 50, 100, 200 and 300 mg/kg, within 24 h and entire study period (14 days); for visible signs of overt toxicity: oral up to 300 mg/kg, physical and behavioral observations, 14 days. The procedure: For this purpose, the mice were randomly allocated into six groups each containing six mice. The first five groups of mice (Group 1–5) received each target compound solubilized using 1% gum acacia at a dose of 10, 50, 100, 200 and 300 mg/kg, respectively. The mice in last group (group 6, served as a negative control) were orally treated with the solvent used to dissolve the target compounds (1% gum acacia) at a maximum dose of 1 mL/100 gm of body weight. Each mouse was then monitored for gross changes such as salivation, loss of appetite, lacrimation, hair erection, diarrhea, convulsions, death, and other signs of overt toxicity.

Another data set deals with Leishmania major. More on the design: method as in PMID 20235747. Particulars: cited from earlier work.
[3] abbreviates: po, mice infected with P. berghei ANKA, oral, 48.46 µmol/kg for four days (CQ 25 mg/kg), versus negative control.
The mark [4] stands for this setting: mice infected with P. berghei ANKA, oral, 48.46 µmol/kg for four days (CQ 25 mg/kg).
Setting [5] is: read-out: IC50 values, antipromastigote activity, L. donovani promastigotes, 22 °C, AlamarBlue fluorescence.
Setting [6] is: L. donovani promastigotes, 22 °C, AlamarBlue fluorescence, read-out: IC50 values, antipromastigote activity.
Setting [7] is: L. donovani promastigotes, 22 °C, AlamarBlue fluorescence.

Converted amounts (≈) assume the structure as drawn. Where two headings read alike, the source gives them in different places.

The term IC50 denotes the concentration that gives 50% inhibition.

Consider `Cc1ccccc1-n1c(/C=C/c2ccc(O)cc2)nc2ccccc2c1=O` [Compound 11, (E)-2-(4-hydroxystyryl)-3-o-tolylquinazolin-4(3H)-one], for which the inhibition in vivo at 48.46 µmol/kg in data set [1] (setting [3]) is greater than 50%. Besides, in data set [1] (setting [4]), the Mean survival time stood at 7.3 ± 0.54 days and the “% Parasitemia” value is listed as 25.27 ± 0.76%. Further, the IC50 in data set [2] (setting [5]) was 0.185 ± 0.026 µg/mL (≈ 0.522 µM).
As for `Cc1ccc(-n2c(/C=C/c3ccc(O)cc3)nc3ccccc3c2=O)cc1` [Compound 12, (E)-2-(4-hydroxystyryl)-3-p-tolylquinazolin-4(3H)-one], in data set [1] (setting [3]), the inhibition in vivo at 48.46 µmol/kg was greater than 50%. Further, in data set [1] (setting [4]), the Mean survival time is 7.6 ± 1.12 days and the “% Parasitemia” value is 32 ± 0.5%. For the same molecule, the IC50 in data set [2] (setting [5]) is 1.84 ± 0.168 µg/mL (≈ 5.2 µM).
Regarding `CC(=O)Oc1ccc(/C=C/c2nc3ccccc3c(=O)n2-c2ccccc2C)cc1` [Compound 8, 4-((1E)-2-(3,4-dihydro-4-oxo-3-o-tolylquinazolin-2-yl)vinyl)phenyl acetate], in data set [1] (setting [4]), the Mean survival time came out at 9.4 ± 0.37 days and the “% Parasitemia” value is 19.57 ± 0.77%. For the same molecule, in data set [2] (setting [5]), the IC50 worked out at 3.33 ± 0.126 µg/mL. Moreover, in the data set on male Swiss albino mice, the mortality in mice entry is “none of the compounds caused mortality” and the “visible signs of overt toxicity” value is reported as “no visible signs of overt toxicity”.
Consider `O=c1c2ccccc2nc(-c2ccccc2)n1Cc1ccccc1` [III], for which the “IC50, in vitro antileishmanial activity” value in the data set with Leishmania major is recorded as 48.91 µg/mL (≈ 157 µM).
As for `C[C@@H]1[C@H](O)[C@@H](C)/C=C/C=C/C=C/C=C/C=C/C=C/C=C/[C@H](O[C@@H]2O[C@H](C)[C@@H](O)[C@H](N)[C@@H]2O)C[C@@H]2O[C@](O)(C[C@@H](O)C[C@@H](O)[C@H](O)CC[C@@H](O)C[C@@H](O)CC(=O)O[C@H]1C)C[C@H](O)[C@H]2C(=O)O` [Amphotericin B, amphotericin B deoxycholate, reference compound], in data set [2] (setting [6]), the half-inhibitory concentration (IC50) worked out at 0.046 ± 0.009 µg/mL (≈ 0.0498 µM).
`CCCCCCCCCCCCCCCCOP(=O)([O-])OCC[N+](C)(C)C` [Miltefosine, hexadecylphosphocholine, reference compound]: in data set [2] (setting [7]), the “IC50 values, antipromastigote activity” value is 3.191 ± 0.194 µg/mL (≈ 7.83 µM). In addition, the concentration for half-maximal inhibition (IC50) in data set [2] (setting [6]) is 3.19 µg/mL (≈ 7.83 µM).
As to `O=c1c2ccccc2nc(/C=C/c2ccc([N+](=O)[O-])cc2)n1-c1ccccc1` [Compound 6, (E)-2-(4-nitrostyryl)-3-phenylquinazolin-4(3H)-one], the inhibition in vivo at 48.46 µmol/kg in data set [1] (setting [3]) is less than 50%. In data set [1] (setting [4]), the Mean survival time was 6.5 ± 0.3 days and the “% Parasitemia” value turned out to be 39.22 ± 0.7%. Further, the “IC50 values, antipromastigote activity” value in data set [2] (setting [7]) was found to be 0.021 ± 0.008 µg/mL (≈ 0.0569 µM). The IC50 in data set [2] (setting [5]) was determined as 0.0212 µg/mL (≈ 0.0574 µM). For the same molecule, in the data set with male Swiss albino mice, the mortality in mice entry is recorded as “none of the compounds caused mortality” and the “visible signs of overt toxicity” value is “no visible signs of overt toxicity”.
Turning to `COc1cc(/C=C/c2nc3ccccc3c(=O)n2-c2ccc(C)cc2)ccc1OC(C)=O` [Compound 10, 4-((1E)-2-(3,4-dihydro-4-oxo-3-p-tolylquinazolin-2-yl)vinyl)-2-methoxyphenyl acetate], in data set [1] (setting [4]), the Mean survival time is 9.8 ± 0.24 days and the “% Parasitemia” value was found to be 16.85 ± 0.39%. Moreover, in data set [2] (setting [6]), the IC50 was found to be 0.196 ± 0.042 µg/mL. Also, in the data set on male Swiss albino mice, the mortality in mice entry is recorded as “none of the compounds caused mortality” and the “visible signs of overt toxicity” value is “no visible signs of overt toxicity”.
As for `Cc1ccccc1-n1c(/C=C/c2ccc(Cl)cc2)nc2ccccc2c1=O` [Compound 7, (E)-2-(4-chlorostyryl)-3-o-tolylquinazolin-4(3H)-one], in data set [1] (setting [3]), the inhibition in vivo at 48.46 µmol/kg is less than 50%. In data set [1] (setting [4]), the Mean survival time was found to be 6.9 ± 0.5 days and the “% Parasitemia” value came out at 35.69 ± 0.69%. In addition, the IC50 in data set [2] (setting [5]) was 3.25 ± 0.282 µg/mL (≈ 8.71 µM).
For `CCN(CC)CCCC(C)Nc1ccnc2cc(Cl)ccc12` (stereo not drawn) [CQ, chloroquine phosphate, reference compound], in data set [1], the inhibition in vivo at 48.46 µmol/kg turned out to be 100%. The “% Parasitemia” value in data set [1] (setting [4]) is listed as 0%.
`COc1cc(/C=C/c2nc3ccccc3c(=O)n2-c2ccc(C)cc2)ccc1O` [Compound 13, (E)-2-(4-hydroxy-3-methoxystyryl)-3-p-tolylquinazolin-4(3H)-one]: the inhibition in vivo at 48.46 µmol/kg in data set [1] (setting [3]) is greater than 50%. Moreover, in data set [1] (setting [4]), the Mean survival time worked out at 7.9 ± 0.3 days and the “% Parasitemia” value stood at 24.13 ± 0.29%. Besides, in data set [2] (setting [5]), the IC50 is 2.27 ± 0.214 µg/mL (≈ 5.89 µM).

Values taken from PMC9716151, “Synthesis, antimalarial, antileishmanial evaluation, and molecular docking study of some 3-aryl-2-styryl substituted-4(3H)-quinazolinone derivatives” (BMC Chemistry, 2022).
